Test results: publication PMC5814210, “2-Amino-3-methylcarboxy-5-heptyl-thiophene (TJ191) is a selective anti-cancer small molecule that targets low TβRIII-expressing malignant T-cell leukemia/lymphoma cells” (Oncotarget, 2017)
Read-outs that look alike come from different tables or passages of the source.

Experiments:
PBMCs [1] = test: Proliferation assay, PBMCs; assay type: cell-based, human; settings: PBMCs stimulated with IL-2 and phytohemagglutinin, three days, cell counting, read-out: IC50 (50% inhibition of cell growth)
Procedure: (§1) PBMCs were isolated from Buffy coats obtained from healthy blood donors (after receiving informed consent) using lymphoprep according to the manufacturer’s instructions. PBMCs were then stimulated with interleukin-2 (2 ng/ml, R&D systems, Abingdon, UK) and phytohemagglutinin (2 µg/ml, Sigma-Aldrich) for three days and used in the experiments described below. Human T-cell leukemia/lymphoma cell lines CCRF-CEM (referred to as CEM), JURKAT, MOLT-3, MOLT-4, SUP-T1, MT-2, MT-4, C8166, HSB-2, and HUT-78 were obtained from ATCC (Middlesex, UK). Cells were cultured in RPMI-1640 medium supplemented with 10% fetal bovine serum (FBS, Gibco, Erembodegem, Belgium) and 2 mM L-glutamine (Gibco).
(§2) Human T-cell leukemia/lymphoma and prostate cancer cell lines were seeded into 96-well plates at a density of 60 × 10^3 and 20 × 10^3 cells/well respectively, and treated with 5-fold dilutions of TJ191, cladribine, 6-MP, ara-C, 6-TG, adriamycine or endoxan. 200 × 10^3 PBMCs/well were seeded and treated as indicated above. After three days, cells were counted using the coulter cell counter (Analis, Belgium). The IC50 value refers to the compound concentration that causes 50% inhibition of cell growth.

[2] = tested on: primary human fibroblasts; set-up: method as in PMID 28365318; settings: read-out: IC50, growth of primary human fibroblasts; cited from earlier work
HSB-2 cells = test: Proliferation assay, HSB-2 cells; assay type: cell-based, human; settings: three days, cell counting, read-out: IC50 (50% inhibition of cell growth)
Procedure: as §1, with “(Gibco). […] After three days, cells were counted using the coulter cell counter (Analis, Belgium). The IC50 value refers to the compound concentration that causes 50% inhibition of cell growth.” for “(Gibco).”

MT-4 cells = test: Proliferation assay, MT-4 cells; assay type: cell-based, human; settings: three days, cell counting, read-out: IC50 (50% inhibition of cell growth)
Procedure: as §1, with “(Gibco). […] After three days, cells were counted using the coulter cell counter (Analis, Belgium). The IC50 value refers to the compound concentration that causes 50% inhibition of cell growth.” for “(Gibco).”

PBMCs [3] = tested on: PBMCs; set-up: method as in PMID 28365318; settings: read-out: IC50, growth of PBMCs; cited from earlier work
CEM cells [4] = test: Proliferation assay, CEM cells; assay type: cell-based, human; settings: three days, cell counting, read-out: IC50 (50% inhibition of cell growth)
Procedure: as §1, with “(Gibco). […] After three days, cells were counted using the coulter cell counter (Analis, Belgium). The IC50 value refers to the compound concentration that causes 50% inhibition of cell growth.” for “(Gibco).”

MT-2 cells = test: Proliferation assay, MT-2 cells; assay type: cell-based, human; settings: three days, cell counting, read-out: IC50 (50% inhibition of cell growth)
Procedure: as §1, with “(Gibco). […] After three days, cells were counted using the coulter cell counter (Analis, Belgium). The IC50 value refers to the compound concentration that causes 50% inhibition of cell growth.” for “(Gibco).”

MOLT-3 cells = test: Proliferation assay, MOLT-3 cells; assay type: cell-based, human; settings: three days, cell counting, read-out: IC50 (50% inhibition of cell growth)
Procedure: as §1, with “(Gibco). […] After three days, cells were counted using the coulter cell counter (Analis, Belgium). The IC50 value refers to the compound concentration that causes 50% inhibition of cell growth.” for “(Gibco).”

tumor cell lines = tested on: tumor cell lines; set-up: method as in PMID 28365318; settings: cited from earlier work
C8166 cells = test: Proliferation assay, C8166 cells; assay type: cell-based, human; settings: three days, cell counting, read-out: IC50 (50% inhibition of cell growth)
Procedure: as §1, with “(Gibco). […] After three days, cells were counted using the coulter cell counter (Analis, Belgium). The IC50 value refers to the compound concentration that causes 50% inhibition of cell growth.” for “(Gibco).”

CEM cells [5] = test: Apoptosis assay (caspase-3 activity, NucView substrate) in CEM cells; assay type: cell-based, human; settings: 0.3 µM, 24 h
Procedure: Figure 1 Cytostatic and cytotoxic activity of TJ191 in T-cell leukemia/lymphoma cells (A) Chemical structure of TJ191. (B) Effect of TJ191 on the growth of human T-cell leukemia/lymphoma cell lines. (C) Pro-apoptotic effect of TJ191 in CEM cells. Cells were incubated with TJ191 for 8 h or 24 h and apoptosis was determined based on caspase-3 activity using the NucView […] Caspase-3 substrate, according to the manufacturer’s instruction, and fluorescence microscopy (Axiovert 200 M inverted microscope, Zeiss). Left panel, representative fluorescence microscopy images are shown; scale bars, 50 µm. Right panel, quantification of the apoptosis rate is shown. Bars represent the mean percentage of cells stained positive for caspase-3 of three different sections; bars, ± S.E.M. Data are representative of two independent experiments.
6 × 10^5 CEM cells/well were seeded into 96-well plates and treated with TJ191 in the presence of 2 µM NucView 488 caspase substrate (Biotium, Hayward, CA). When cells undergo apoptosis, the caspase substrate is cleaved by activated caspase-3/7 to release the DNA dye NucView 488, which stains the nucleus with bright green fluorescence. Cells were fixed at indicated times in 2% paraformaldehyde for 10 min at room temperature and analyzed for NucView 488 staining using a Carl Zeiss Axiovert 200 M inverted microscope (Zeiss, Göttingen, Germany).

Water solubility = assay type: physicochemical; settings: precludes in vivo testing
JURKAT cells = test: Proliferation assay, JURKAT cells; assay type: cell-based, human; settings: three days, cell counting, read-out: IC50 (50% inhibition of cell growth)
Procedure: as §1, with “(Gibco). […] After three days, cells were counted using the coulter cell counter (Analis, Belgium). The IC50 value refers to the compound concentration that causes 50% inhibition of cell growth.” for “(Gibco).”

MOLT-4 cells = test: Proliferation assay, MOLT-4 cells; assay type: cell-based, human; settings: three days, cell counting, read-out: IC50 (50% inhibition of cell growth)
Procedure: as §1, with “(Gibco). […] After three days, cells were counted using the coulter cell counter (Analis, Belgium). The IC50 value refers to the compound concentration that causes 50% inhibition of cell growth.” for “(Gibco).”

SUP-T1 cells = test: Proliferation assay, SUP-T1 cells; assay type: cell-based, human; settings: three days, cell counting, read-out: IC50 (50% inhibition of cell growth)
Procedure: as §1, with “(Gibco). […] After three days, cells were counted using the coulter cell counter (Analis, Belgium). The IC50 value refers to the compound concentration that causes 50% inhibition of cell growth.” for “(Gibco).”

[6] = tested on: TβRIII KO1 and KO2 HUT-78 cells; test: Proliferation assay, TβRIII knock-out HUT-78 cells (KO1 and KO2); assay type: cell-based, human; settings: three days, cell counting
Procedure: as §2

CEM-R cells = test: Proliferation assay, TJ191-selected resistant CEM cells (CEM-R); assay type: cell-based, human; settings: selected one month at 100-fold IC50 concentration of TJ191; three days growth
Procedure: as §2

HUT-78 cells = test: Proliferation assay, HUT-78 cells; assay type: cell-based, human
Procedure: as §1, with “(Gibco). […] After three days, cells were counted using the coulter cell counter (Analis, Belgium). The IC50 value refers to the compound concentration that causes 50% inhibition of cell growth.” for “(Gibco).”

Nc1ccn([C@@H]2O[C@H](CO)[C@@H](O)[C@@H]2O)c(=O)n1 [ara-C, 1-β-D-arabinofuranosyl cytosine]
IC50 (PBMCs [1]; Homo sapiens, PBMC, 72 h): 880 ± 600 nM

2-amino-3-methylcarboxy-5-heptyl-thiophene [TJ191]
IC50 [2]: > 100000 nM
IC50 (HSB-2 cells): 260 ± 160 nM
IC50 (MT-4 cells): 47000 ± 5000 nM
IC50 (PBMCs [3]): > 100000 nM
IC50 (CEM cells [4]): 130 ± 20 nM
IC50 (MT-2 cells): 320 ± 86 nM
IC50 (MOLT-3 cells): 260 ± 190 nM
IC50 (tumor cell lines; drug-insensitive tumor cell lines, read-out: IC50 in drug-insensitive tumor cell lines): ~60000 nM
IC50 (tumor cell lines; drug-sensitive tumor cell lines, read-out: IC50 in drug-sensitive tumor cell lines): ~100 nM
IC50 (C8166 cells): 3100 ± 500 nM
Maximum apoptotic rate (cells positive for caspase-3) (CEM cells [5]): ~80%
Water solubility (Water solubility): relative water insolubility
IC50 (JURKAT cells): 130 ± 80 nM
IC50 (MOLT-4 cells): 220 ± 110 nM
IC50 (SUP-T1 cells): 1500 ± 20 nM
Change of IC50 in TβRIII KO1 and KO2 cells compared with parental or scrambled control HUT-78 cells [6]: reduced at least four- to five-fold
Reduced sensitivity of CEM-R compared with wild-type CEM (CEM-R cells): ~100 fold
IC50 (HUT-78 cells; HUT-78 cells (parental), three days, cell counting, read-out: IC50 (50% inhibition of cell growth)): 17000 ± 10000 nM
Fold less sensitive, parental HUT-78 versus CEM cells (HUT-78 cells; ratio of IC50 HUT-78 to IC50 CEM): 130 fold

Nc1nc(Cl)nc2c1ncn2[C@H]1C[C@H](O)[C@@H](CO)O1 [cladribine, Cladribine]
IC50 (PBMCs [1]; Homo sapiens, PBMC, 72 h): 180 ± 90 nM

Nc1nc2nc[nH]c2c(=S)[nH]1 [6-TG, 6-thioguanine]
IC50 (PBMCs [1]; Homo sapiens, PBMC, 72 h): 570 ± 270 nM

O=P1(N(CCCl)CCCl)NCCCO1 (stereo not drawn) [endoxan, cyclophosphamide, reference compound]
Change of IC50 in TβRIII KO1 and KO2 cells compared with parental or scrambled control HUT-78 cells [6]: no significant difference

COc1cccc2c1C(=O)c1c(O)c3c(c(O)c1C2=O)C[C@@](O)(C(=O)CO)C[C@@H]3O[C@H]1C[C@H](N)[C@H](O)[C@H](C)O1 [adriamycine]
IC50 (PBMCs [1]): 79 ± 62 nM
